Experimental data published in patent US20260001928A1 (CORTERIA PHARMACEUTICALS, priority 2022, published 2026).
*1 amine or outer side, *2 acyl side, *3 side chain or, on linkers, in order; H or OH if unused. Where a SMILES comes first, the peptide text is derived from it. Side-chain parts run from the residue outwards. [ ]: non-standard residue; d: D form. The star is where a group is joined. C18 diacid = O=C(O)CCCCCCCCCCCCCCCCC(=O)*; γGlu = O=C(O)[C@H](CCC(=O)[*:2])N[*:1]; C14 diacid = O=C(O)CCCCCCCCCCCCC(=O)*; Api = NC1(C(=O)O)CCNCC1; AEEA = NCCOCCOCC(=O)O; Aib = CC(C)(N)C(=O)O

Key:
[1] = In vitro subcutaneous tissue supernatant (SCts) stability and metabolite identification, rat; format: in vitro ADME; design: remaining at 2 h: dose or concentration left out as unconfirmed; conditions: male, Sprague Dawley; rat subcutaneous tissue supernatant (SCts), 37° C, 2 h
[2] = Chemical stability in buffer (pH 7.4 / pH 4.5), % purity loss; format: physicochemical; conditions: 40° C. vs 5° C., 14 or 28 days; for Buffer stability pH 7.4 % purity loss: 100 mM phosphate buffer pH 7.4; for Buffer stability pH 4.5 % purity loss: 100 mM acetate buffer pH 4.5
Summary of the method: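 LC-UV gave % loss after 14 or 28 days of storage at 5 °C or 40 °C. Samples were diluted supernatants from compound incubated 1 h at room temperature at 10 mg/mL target, in 100 mM acetate pH 4.5 or 100 mM phosphate pH 7.4.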

[3] = Pharmacokinetics in male Sprague Dawley rats after subcutaneous administration; format: in vivo; conditions: plasma, rat, SC, 0.05 mg/kg
Experimental: The pharmacokinetics of UCN-2 derivatives was studied in male Sprague Dawley rats after subcutaneous administration (SC) at 0.05, 0.1, 0.3 or 1 mg/kg. Peptides were formulated as a solution in 10 mM phosphate pH 7.4 buffer+glycerol 85% (2.3% v/v)). […] The supernatant (200 μL) was analyzed by LC-MSMS. Pharmacokinetic parameters were calculated using established non-compartmental methods. The area under the plasma concentration curve versus time (AUC) was determined using Watson LIMS (version 7.6), with linear trapezoidal interpolation in the ascending slope and logarithmic trapezoidal interpolation in the descending slope. The portion of the AUC from the last measurable concentration to infinity was estimated from the equation, Ct/kel, where Ct represents the last measurable concentration and kel is the elimination rate constant. The latter was determined from the concentration curve versus time by linear regression at the terminal phase of the semi-logarithmic plot.

Sprague Dawley rats = test: Effect on systolic blood pressure, telemetry in Sprague Dawley rats; format: in vivo, rat; conditions: 0.1 mg/kg SC
Summary of the method: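 Values are % change from a 1 h pre-dose baseline in systolic pressure, tracked by telemetry for up to 48 hours after a single 0.1 mg/kg subcutaneous dose. Rats (Sprague Dawley, n=2 per peptide) carried aortic catheters and recovered at least 10 days post-surgery; duration of action marks the last time point still showing an effect.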

human CRF2a receptor = target: T1, human CRF2a receptor (Homo sapiens, UniProt Q13324); test: Activity at human CRF2a receptor, cAMP functional assay in TeloHEAC cells; format: cell-based; conditions: TeloHEAC cells stably expressing human CRF2a receptor, relative to urocortin 2 (100 nM = 100%)
T1 construct: expressed in transfected cells; host or cells: TeloHEAC cells
T1 sequence (Q13324 1-411): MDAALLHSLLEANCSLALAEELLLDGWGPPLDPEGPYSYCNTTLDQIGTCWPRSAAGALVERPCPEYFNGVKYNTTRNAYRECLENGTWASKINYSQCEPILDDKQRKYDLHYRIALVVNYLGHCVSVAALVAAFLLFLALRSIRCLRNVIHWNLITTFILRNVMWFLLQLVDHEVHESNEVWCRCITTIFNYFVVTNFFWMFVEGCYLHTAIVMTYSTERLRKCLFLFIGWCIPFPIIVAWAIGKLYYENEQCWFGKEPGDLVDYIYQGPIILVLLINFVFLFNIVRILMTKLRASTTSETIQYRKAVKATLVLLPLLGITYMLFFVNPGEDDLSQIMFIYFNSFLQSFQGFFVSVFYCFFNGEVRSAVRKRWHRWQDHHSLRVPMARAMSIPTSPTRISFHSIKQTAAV
Summary of the method: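 TeloHEAC cells stably expressing human CRF2a (10000 cells/well, suspended in HBSS/20 mM HEPES with 2 mM IBMX) were exposed to compounds for 30 min at 37 °C. cAMP was read as the 665/620 nm fluorescence ratio after 1 h at room temperature. EC50 was derived relative to 100 nM urocortin 2, set as 100%.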

CFR1R receptor = target: T2, CFR1R receptor (Homo sapiens, UniProt P34998); test: Activity at anti-target CFR1R receptor, cAMP assay in CRF1R-overexpression CHO-K1 cells; format: cell-based; conditions: 100% = Sauvagine at 100 nM; for EC50: cAMP
T2 construct: host or cells: CHO-K1 (clone 2)
T2 sequence (P34998 24-415): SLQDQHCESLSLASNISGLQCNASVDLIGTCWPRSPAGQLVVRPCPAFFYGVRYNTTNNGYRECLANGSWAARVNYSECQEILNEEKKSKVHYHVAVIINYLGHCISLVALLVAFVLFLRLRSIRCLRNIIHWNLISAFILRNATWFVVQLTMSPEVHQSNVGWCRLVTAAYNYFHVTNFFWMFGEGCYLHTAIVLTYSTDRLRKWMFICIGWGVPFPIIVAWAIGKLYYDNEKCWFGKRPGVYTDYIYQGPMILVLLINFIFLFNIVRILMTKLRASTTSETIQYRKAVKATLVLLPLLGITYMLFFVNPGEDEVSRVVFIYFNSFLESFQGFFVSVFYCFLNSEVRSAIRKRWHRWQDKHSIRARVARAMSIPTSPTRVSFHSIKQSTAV
Summary of the method: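 Grow clone 2 to near confluence at 37° C. under 5% CO2 in F12 (Hams) with 10% FBS and G418, harvest, and freeze in 10% DMSO. Thaw and plate at 4000 cells/well. Then proceed per the TeloHAEC method, normalising to Sauvagine 100 nM as maximum.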

SMILES	remaining at 2 h [1] [%]	Buffer stability pH 7.4 % purity loss [2]	AUC(0-t) [3] [ng·h/mL]	Cmax [3] [ng/mL]	Tmax [3] [h]	half-life [3] [h]	Systolic blood pressure (Mean) % change from baseline, 8 h (Sprague Dawley rats; 8 h, n=2) [%]	Systolic blood pressure (Mean) % change from baseline, 12 h (Sprague Dawley rats; 12 h, n=2) [%]	Systolic blood pressure (Mean) % change from baseline, 24 h (Sprague Dawley rats; 24 h, n=2) [%]	Duration of action (Sprague Dawley rats; last time point with an effect on BP still observed) [h]	EC50 (human CRF2a receptor) [nM]	Emax (% I) (CFR1R receptor)	EC50 (CFR1R receptor) [nM]	Buffer stability pH 4.5 % purity loss [2]
CC[C@H](C)[C@H](NC(C)=O)C(=O)N[C@H](C(=O)N[C@@H](CC(C)C)C(=O)N[C@@H](CO)C(=O)N[C@@H](CC(C)C)C(=O)N[C@@H](CC(=O)O)C(=O)N[C@@H](C(=O)N1CCC[C@H]1C(=O)N[C@H](C(=O)N[C@@H](CCCCN)C(=O)N[C@@H](CC(C)C)C(=O)N[C@@H](CCCCNC(=O)CC[C@H](NC(=O)CCCCCCCCCCCCC(=O)O)C(=O)O)C(=O)N[C@@H](CCCCN)C(=O)N[C@H](C(=O)N[C@@H](CC(C)C)C(=O)N[C@@H](CC(C)C)C(=O)N[C@@H](CCC(=O)O)C(=O)N[C@@H](CCC(N)=O)C(=O)N[C@@H](CCC(=O)O)C(=O)N[C@@H](CCCCN)C(=O)N[C@@H](CCC(N)=O)C(=O)N[C@@H](CCCCN)C(=O)N[C@@H](CCCCN)C(=O)N[C@@H](CCC(N)=O)C(=O)N[C@@H](CCCNC(=N)N)C(=O)N[C@@H](CCC(=O)O)C(=O)N[C@@H](CCC(N)=O)C(=O)N[C@@H](C)C(=O)N[C@@H](CCC(=O)O)C(=O)N[C@H](C(=O)N[C@@H](CC(N)=O)C(=O)NC(C)(C)C(=O)N[C@@H](CCC(N)=O)C(=O)N[C@H](C(=O)N[C@@H](CC(C)C)C(=O)N[C@@H](C)C(=O)N[C@@H](CCC(N)=O)C(=O)N[C@H](C(N)=O)C(C)C)[C@@H](C)CC)[C@@H](C)O)[C@@H](C)CC)[C@@H](C)CC)C(C)C)C(C)C [compound 82] (Ac-IVLSLD[dV]PIKLK([γGlu-C14 diacid])KILLEQEKQKKQREQAETN[Aib]QILAQV-NH2)	82	0.0/Not Tested %	221	64	0.75	1.4	−33	−4	11	14	–	–	–	–
CC[C@H](C)[C@H](NC(C)=O)C(=O)N[C@H](C(=O)N[C@@H](CC(C)C)C(=O)N[C@@H](CO)C(=O)N[C@@H](CC(C)C)C(=O)N[C@@H](CC(=O)O)C(=O)N[C@@H](C(=O)N1CCC[C@H]1C(=O)N[C@H](C(=O)N[C@@H](CCCCN)C(=O)N[C@@H](CC(C)C)C(=O)N[C@@H](CCCCNC(=O)COCCOCCNC(=O)COCCOCCNC(=O)CC[C@H](NC(=O)CCCCCCCCCCCCCCCCC(=O)O)C(=O)O)C(=O)N[C@@H](CCCCN)C(=O)N[C@H](C(=O)N[C@@H](CC(C)C)C(=O)N[C@@H](CC(C)C)C(=O)N[C@@H](CCC(=O)O)C(=O)N[C@@H](CCC(N)=O)C(=O)N[C@@H](CCC(=O)O)C(=O)N[C@@H](CCCCN)C(=O)N[C@@H](CCC(N)=O)C(=O)N[C@@H](CCCCN)C(=O)N[C@@H](CCCCN)C(=O)N[C@@H](CCC(N)=O)C(=O)N[C@@H](CCCNC(=N)N)C(=O)N[C@@H](CCC(=O)O)C(=O)N[C@@H](CCC(N)=O)C(=O)N[C@@H](C)C(=O)N[C@@H](CCC(=O)O)C(=O)N[C@H](C(=O)N[C@@H](CC(N)=O)C(=O)NC(C)(C)C(=O)N[C@@H](CCC(N)=O)C(=O)N[C@H](C(=O)N[C@@H](CC(C)C)C(=O)N[C@@H](C)C(=O)N[C@@H](CCC(N)=O)C(=O)N[C@H](C(N)=O)C(C)C)[C@@H](C)CC)[C@@H](C)O)[C@@H](C)CC)[C@@H](C)CC)C(C)C)C(C)C [compound 98] (Ac-IVLSLD[dV]PIKLK([AEEA-AEEA-γGlu-C18 diacid])KILLEQEKQKKQREQAETN[Aib]QILAQV-NH2)	74	0.0/0.0 ^ %	2710	159	5	5.8	–	–	–	–	0.55	−2	> 250	0.0/0.0 ^ %
CC[C@H](C)[C@H](NC(C)=O)C(=O)N[C@H](C(=O)N[C@@H](CC(C)C)C(=O)N[C@@H](CO)C(=O)N[C@@H](CC(C)C)C(=O)N[C@@H](CC(=O)O)C(=O)N[C@@H](C(=O)N1CCC[C@H]1C(=O)N[C@H](C(=O)N[C@@H](CCCCN)C(=O)N[C@@H](CC(C)C)C(=O)N[C@@H](CCCCNC(=O)CC[C@H](NC(=O)CCCCCCCCCCCCCCCCC(=O)O)C(=O)O)C(=O)N[C@@H](CCCCN)C(=O)N[C@H](C(=O)N[C@@H](CC(C)C)C(=O)N[C@@H](CC(C)C)C(=O)N[C@@H](CCC(=O)O)C(=O)N[C@@H](CCC(N)=O)C(=O)N[C@@H](CCC(=O)O)C(=O)N[C@@H](CCCCN)C(=O)N[C@@H](CCC(N)=O)C(=O)N[C@@H](CCCCN)C(=O)NC(C)(C)C(=O)N[C@@H](CCC(N)=O)C(=O)N[C@@H](CCCNC(=N)N)C(=O)N[C@@H](CCC(=O)O)C(=O)N[C@@H](CCC(N)=O)C(=O)N[C@@H](C)C(=O)N[C@@H](CCC(=O)O)C(=O)N[C@H](C(=O)N[C@@H](CC(N)=O)C(=O)NC1(C(=O)N[C@@H](CCC(N)=O)C(=O)N[C@H](C(=O)N[C@@H](CC(C)C)C(=O)N[C@@H](C)C(=O)N[C@@H](CCC(N)=O)C(=O)N[C@H](C(N)=O)C(C)C)[C@@H](C)CC)CCNCC1)[C@@H](C)O)[C@@H](C)CC)[C@@H](C)CC)C(C)C)C(C)C [compound 188] (Ac-IVLSLD[dV]PIKLK([γGlu-C18 diacid])KILLEQEKQK[Aib]QREQAETN[Api]QILAQV-NH2)	77	0.0/0.0 ^ %	2270	138	6	10.6	–	–	–	–	0.28	32	> 250	0.0/0.0 ^ %
